In ChEMBL document CHEMBL5649169 (ChemMedChem, 2018):

Tests used:
[1] = biological target: Elongation factor 1-delta (Homo sapiens) (UniProt P29692)
[2] = biological target: Protein S100-A6 (Homo sapiens) (UniProt P06703)
[3] = biological target: Rho-associated protein kinase 2 (Homo sapiens) (UniProt O75116)
[4] = biological target: Tripeptidyl-peptidase 1 (Homo sapiens) (UniProt O14773)
[5] = biological target: Activin receptor type-2B (Homo sapiens) (UniProt Q13705)
[6] = biological target: Importin subunit beta-1 (Homo sapiens) (UniProt Q14974)
Sequence of Importin subunit beta-1 (Homo sapiens) (Q14974 whole entry): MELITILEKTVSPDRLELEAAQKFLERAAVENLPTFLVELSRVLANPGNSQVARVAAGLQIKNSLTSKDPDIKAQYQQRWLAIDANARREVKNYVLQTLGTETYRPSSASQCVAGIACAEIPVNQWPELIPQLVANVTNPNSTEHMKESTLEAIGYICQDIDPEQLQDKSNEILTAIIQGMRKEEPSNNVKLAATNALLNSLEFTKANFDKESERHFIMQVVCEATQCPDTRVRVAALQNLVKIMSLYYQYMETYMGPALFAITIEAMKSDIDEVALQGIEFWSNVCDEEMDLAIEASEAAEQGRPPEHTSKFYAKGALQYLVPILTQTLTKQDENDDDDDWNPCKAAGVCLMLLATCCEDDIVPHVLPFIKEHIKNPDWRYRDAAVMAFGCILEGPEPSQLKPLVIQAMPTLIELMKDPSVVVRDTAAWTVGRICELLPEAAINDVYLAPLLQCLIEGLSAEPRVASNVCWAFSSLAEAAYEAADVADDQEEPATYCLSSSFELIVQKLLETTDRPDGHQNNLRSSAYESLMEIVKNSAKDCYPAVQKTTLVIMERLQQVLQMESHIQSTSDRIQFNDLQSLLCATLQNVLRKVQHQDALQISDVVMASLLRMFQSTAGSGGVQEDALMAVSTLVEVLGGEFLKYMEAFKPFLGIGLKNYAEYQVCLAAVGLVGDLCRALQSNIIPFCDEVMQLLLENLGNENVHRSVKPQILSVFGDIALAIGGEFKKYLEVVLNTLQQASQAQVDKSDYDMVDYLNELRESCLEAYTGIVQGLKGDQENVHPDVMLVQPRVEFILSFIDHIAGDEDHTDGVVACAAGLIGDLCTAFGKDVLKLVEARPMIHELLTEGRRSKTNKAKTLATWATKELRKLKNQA

[7] = biological target: Poly [ADP-ribose] polymerase 1 (Homo sapiens) (UniProt P09874)
[8] = biological target: Chromodomain-helicase-DNA-binding protein 4 (Homo sapiens) (UniProt Q14839)
[9] = biological target: Serine/threonine-protein kinase 4 (Homo sapiens) (UniProt Q13043)
[10] = biological target: Proto-oncogene tyrosine-protein kinase receptor Ret (Homo sapiens) (UniProt P07949)
[11] = biological target: Eukaryotic translation initiation factor 3 subunit I (Homo sapiens) (UniProt Q13347)
[12] = biological target: Dual specificity mitogen-activated protein kinase kinase 1 (Homo sapiens) (UniProt Q02750)
Sequence of Dual specificity mitogen-activated protein kinase kinase 1 (Homo sapiens) (Q02750 whole entry): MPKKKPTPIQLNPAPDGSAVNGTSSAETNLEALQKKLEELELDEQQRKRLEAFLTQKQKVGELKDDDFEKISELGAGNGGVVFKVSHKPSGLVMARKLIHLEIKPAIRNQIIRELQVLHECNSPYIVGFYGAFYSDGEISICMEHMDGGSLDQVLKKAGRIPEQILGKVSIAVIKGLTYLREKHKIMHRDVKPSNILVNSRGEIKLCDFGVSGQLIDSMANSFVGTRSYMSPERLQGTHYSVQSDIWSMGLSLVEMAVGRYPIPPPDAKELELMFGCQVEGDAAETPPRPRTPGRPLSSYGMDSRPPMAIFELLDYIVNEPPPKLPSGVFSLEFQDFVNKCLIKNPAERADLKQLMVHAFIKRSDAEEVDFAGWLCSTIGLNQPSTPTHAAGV

[13] = biological target: MAP kinase-activated protein kinase 2 (Homo sapiens) (UniProt P49137)
Sequence of MAP kinase-activated protein kinase 2 (Homo sapiens) (P49137 whole entry, looked up): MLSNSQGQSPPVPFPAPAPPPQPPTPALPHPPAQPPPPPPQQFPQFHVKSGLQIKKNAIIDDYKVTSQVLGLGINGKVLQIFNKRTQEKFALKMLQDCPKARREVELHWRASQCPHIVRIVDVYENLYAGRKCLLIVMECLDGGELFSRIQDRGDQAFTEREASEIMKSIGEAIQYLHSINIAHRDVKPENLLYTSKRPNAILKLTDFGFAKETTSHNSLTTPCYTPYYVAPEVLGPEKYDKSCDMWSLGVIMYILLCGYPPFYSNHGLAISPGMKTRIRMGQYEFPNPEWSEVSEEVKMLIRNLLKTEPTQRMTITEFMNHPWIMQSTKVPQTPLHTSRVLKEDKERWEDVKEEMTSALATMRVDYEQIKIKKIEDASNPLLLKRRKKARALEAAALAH

[14] = biological target: Exportin-5 (Homo sapiens) (UniProt Q9HAV4)
[15] = biological target: TAR DNA-binding protein 43 (Homo sapiens) (UniProt Q13148)
[16] = biological target: Constitutive coactivator of PPAR-gamma-like protein 1 (Homo sapiens) (UniProt Q9NZB2)
[17] = biological target: H/ACA ribonucleoprotein complex subunit DKC1 (Homo sapiens) (UniProt O60832)
[18] = biological target: 26S proteasome regulatory subunit 10B (Homo sapiens) (UniProt P62333)
[19] = biological target: Methionine--tRNA ligase, cytoplasmic (Homo sapiens) (UniProt P56192)
[20] = biological target: Sterol O-acyltransferase 1 (Homo sapiens) (UniProt P35610)
[21] = biological target: ATP synthase F(0) complex subunit f, mitochondrial (Homo sapiens) (UniProt P56134)
[22] = biological target: Interleukin enhancer-binding factor 2 (Homo sapiens) (UniProt Q12905)
[23] = biological target: Serine/threonine-protein kinase D3 (Homo sapiens) (UniProt O94806)
[24] = biological target: Mitogen-activated protein kinase kinase kinase 2 (Homo sapiens) (UniProt Q9Y2U5)
[25] = biological target: Peroxiredoxin-4 (Homo sapiens) (UniProt Q13162)
[26] = biological target: Nucleolar protein 56 (Homo sapiens) (UniProt O00567)
Sequence of Nucleolar protein 56 (Homo sapiens) (O00567 whole entry): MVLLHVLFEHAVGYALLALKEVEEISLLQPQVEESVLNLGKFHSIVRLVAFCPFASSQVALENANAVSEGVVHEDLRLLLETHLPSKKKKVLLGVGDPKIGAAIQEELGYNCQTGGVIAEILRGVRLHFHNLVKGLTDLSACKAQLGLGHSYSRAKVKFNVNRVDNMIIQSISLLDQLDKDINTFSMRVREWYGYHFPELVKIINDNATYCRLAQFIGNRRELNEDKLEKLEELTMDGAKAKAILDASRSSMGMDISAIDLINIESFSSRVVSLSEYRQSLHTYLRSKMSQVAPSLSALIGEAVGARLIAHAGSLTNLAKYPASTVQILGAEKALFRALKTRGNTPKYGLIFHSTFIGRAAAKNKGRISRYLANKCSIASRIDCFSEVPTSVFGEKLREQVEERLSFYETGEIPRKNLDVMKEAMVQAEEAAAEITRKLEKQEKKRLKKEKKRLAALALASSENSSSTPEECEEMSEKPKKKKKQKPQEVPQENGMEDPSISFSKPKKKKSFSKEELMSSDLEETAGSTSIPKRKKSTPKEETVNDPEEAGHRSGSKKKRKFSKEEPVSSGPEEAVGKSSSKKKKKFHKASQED

Homo sapiens [27] = species: Homo sapiens
[28] = biological target: Nuclear pore complex protein Nup155 (Homo sapiens) (UniProt O75694)
[29] = biological target: ATP synthase F(1) complex subunit alpha, mitochondrial (Homo sapiens) (UniProt P25705)
[30] = biological target: Eukaryotic translation initiation factor 3 subunit H (Homo sapiens) (UniProt O15372)
Sequence of Eukaryotic translation initiation factor 3 subunit H (Homo sapiens) (O15372 whole entry): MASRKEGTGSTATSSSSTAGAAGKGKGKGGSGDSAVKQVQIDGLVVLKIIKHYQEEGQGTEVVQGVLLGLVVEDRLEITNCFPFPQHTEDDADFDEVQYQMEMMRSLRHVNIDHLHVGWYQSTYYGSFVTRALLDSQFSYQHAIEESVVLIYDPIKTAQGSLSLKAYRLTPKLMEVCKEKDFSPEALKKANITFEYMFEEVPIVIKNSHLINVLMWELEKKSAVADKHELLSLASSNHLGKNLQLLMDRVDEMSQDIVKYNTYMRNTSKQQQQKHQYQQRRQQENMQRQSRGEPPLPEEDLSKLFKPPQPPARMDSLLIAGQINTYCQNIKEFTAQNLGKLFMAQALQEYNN

[31] = biological target: Double-stranded RNA-specific adenosine deaminase (Homo sapiens) (UniProt P55265)
[32] = biological target: Serine/threonine-protein kinase Chk1 (Homo sapiens) (UniProt O14757)
[33] = biological target: Heterogeneous nuclear ribonucleoproteins A2/B1 (Homo sapiens) (UniProt P22626)
[34] = biological target: ATP-dependent RNA helicase DDX24 (Homo sapiens) (UniProt Q9GZR7)
[35] = biological target: Programmed cell death 6-interacting protein (Homo sapiens) (UniProt Q8WUM4)
Ataxin-10 (Homo sapiens) = Ataxin-10 (Homo sapiens) (UniProt Q9UBB4)
Sequence of Ataxin-10 (Homo sapiens) (Q9UBB4 whole entry): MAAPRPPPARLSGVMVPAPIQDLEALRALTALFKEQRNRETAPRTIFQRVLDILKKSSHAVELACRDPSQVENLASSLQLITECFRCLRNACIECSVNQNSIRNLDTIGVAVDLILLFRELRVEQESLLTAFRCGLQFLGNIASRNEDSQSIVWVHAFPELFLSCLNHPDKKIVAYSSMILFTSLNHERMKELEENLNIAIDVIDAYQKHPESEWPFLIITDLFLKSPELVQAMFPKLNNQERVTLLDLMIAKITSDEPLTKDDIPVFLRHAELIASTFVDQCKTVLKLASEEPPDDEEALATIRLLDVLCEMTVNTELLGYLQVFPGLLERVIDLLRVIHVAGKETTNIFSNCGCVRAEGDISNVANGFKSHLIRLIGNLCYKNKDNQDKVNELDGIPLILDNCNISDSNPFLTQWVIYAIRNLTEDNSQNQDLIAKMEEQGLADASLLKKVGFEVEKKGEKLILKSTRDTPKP

Homo sapiens [36] = species: Homo sapiens; remark: listed apart in the source
[37] = biological target: Tyrosine-protein kinase Fer (Homo sapiens) (UniProt P16591)
[38] = biological target: Histone H1.0 (Homo sapiens) (UniProt P07305)
[39] = biological target: Multifunctional protein CAD (Homo sapiens) (UniProt P27708)
[40] = biological target: Protein arginine N-methyltransferase 5 (Homo sapiens) (UniProt O14744)
[41] = biological target: Serine/threonine-protein kinase TAO3 (Homo sapiens) (UniProt Q9H2K8)
[42] = biological target: Ubiquitin-conjugating enzyme E2 L3 (Homo sapiens) (UniProt P68036)
[43] = biological target: Large ribosomal subunit protein eL13 (Homo sapiens) (UniProt P26373)
[44] = biological target: Actin-related protein 2/3 complex subunit 1B (Homo sapiens) (UniProt O15143)
[45] = biological target: G2/mitotic-specific cyclin-B2 (Homo sapiens) (UniProt O95067)
[46] = biological target: Serine/threonine-protein kinase MRCK alpha (Homo sapiens) (UniProt Q5VT25)
Note: assay method not described here.

Sequence of Rho-associated protein kinase 2 (Homo sapiens) (O75116 whole entry, looked up): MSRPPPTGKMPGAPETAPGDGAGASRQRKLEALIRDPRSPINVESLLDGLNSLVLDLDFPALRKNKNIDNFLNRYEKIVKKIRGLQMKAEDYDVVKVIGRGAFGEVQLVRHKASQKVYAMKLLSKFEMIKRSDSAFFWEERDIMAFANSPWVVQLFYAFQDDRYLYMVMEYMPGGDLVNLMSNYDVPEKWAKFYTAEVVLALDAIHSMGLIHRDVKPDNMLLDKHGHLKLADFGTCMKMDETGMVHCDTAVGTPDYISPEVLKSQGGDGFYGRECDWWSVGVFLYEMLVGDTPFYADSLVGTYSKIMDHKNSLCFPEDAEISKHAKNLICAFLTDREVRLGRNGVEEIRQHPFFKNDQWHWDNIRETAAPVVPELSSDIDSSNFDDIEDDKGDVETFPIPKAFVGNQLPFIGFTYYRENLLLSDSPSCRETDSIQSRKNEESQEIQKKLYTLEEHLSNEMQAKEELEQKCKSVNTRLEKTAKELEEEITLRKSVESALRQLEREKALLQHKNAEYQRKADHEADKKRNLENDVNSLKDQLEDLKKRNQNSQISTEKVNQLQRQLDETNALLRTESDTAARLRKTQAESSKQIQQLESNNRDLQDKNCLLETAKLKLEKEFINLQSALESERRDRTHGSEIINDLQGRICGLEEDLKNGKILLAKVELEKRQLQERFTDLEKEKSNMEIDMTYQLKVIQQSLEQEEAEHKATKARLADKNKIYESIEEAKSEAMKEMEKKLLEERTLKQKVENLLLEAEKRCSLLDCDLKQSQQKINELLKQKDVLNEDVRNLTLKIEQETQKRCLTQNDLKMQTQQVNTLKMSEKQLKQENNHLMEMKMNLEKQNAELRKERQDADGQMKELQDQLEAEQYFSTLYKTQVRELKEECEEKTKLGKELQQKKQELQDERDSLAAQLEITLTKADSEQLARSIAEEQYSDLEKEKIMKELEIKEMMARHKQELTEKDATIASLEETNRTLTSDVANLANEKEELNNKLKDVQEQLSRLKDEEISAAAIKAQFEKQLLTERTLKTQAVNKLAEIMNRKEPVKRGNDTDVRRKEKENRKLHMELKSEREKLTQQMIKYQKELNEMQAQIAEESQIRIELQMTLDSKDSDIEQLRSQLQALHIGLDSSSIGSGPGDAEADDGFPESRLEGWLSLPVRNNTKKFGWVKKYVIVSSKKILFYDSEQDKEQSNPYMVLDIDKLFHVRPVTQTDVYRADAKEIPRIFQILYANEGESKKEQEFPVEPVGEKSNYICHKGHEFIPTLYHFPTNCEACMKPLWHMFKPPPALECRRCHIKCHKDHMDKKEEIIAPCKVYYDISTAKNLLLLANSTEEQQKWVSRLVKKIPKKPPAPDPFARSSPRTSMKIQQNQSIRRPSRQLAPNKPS
Sequence of Tripeptidyl-peptidase 1 (Homo sapiens) (O14773 whole entry): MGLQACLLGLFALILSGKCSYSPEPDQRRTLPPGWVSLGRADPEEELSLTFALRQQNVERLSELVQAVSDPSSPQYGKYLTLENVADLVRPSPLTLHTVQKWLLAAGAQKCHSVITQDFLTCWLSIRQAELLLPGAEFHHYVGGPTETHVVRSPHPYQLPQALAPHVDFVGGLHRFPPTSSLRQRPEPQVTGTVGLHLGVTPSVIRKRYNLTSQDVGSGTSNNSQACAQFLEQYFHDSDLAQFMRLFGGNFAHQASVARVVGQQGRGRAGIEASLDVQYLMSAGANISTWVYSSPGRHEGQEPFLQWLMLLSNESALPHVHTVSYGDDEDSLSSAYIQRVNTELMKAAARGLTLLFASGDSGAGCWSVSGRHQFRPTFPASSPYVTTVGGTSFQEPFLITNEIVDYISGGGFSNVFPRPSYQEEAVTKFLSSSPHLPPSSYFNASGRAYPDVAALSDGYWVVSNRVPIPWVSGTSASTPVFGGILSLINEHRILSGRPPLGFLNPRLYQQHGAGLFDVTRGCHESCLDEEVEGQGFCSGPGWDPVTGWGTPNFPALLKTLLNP

Cc1ccc(C(=O)Nc2cccc(C(F)(F)F)c2)cc1Nc1nc(-c2cccnc2)nc2c1cnn2C
ED50 [1]: 1.74 µM
ED50 [2]: 0.118 µM
ED50 [3]: 0.0201 µM
ED50 [4]: 3.39 µM
ED50 [5]: 4.77 µM
ED50 [6]: 3.71 µM
ED50 [7]: 7.11 µM
ED50 [8]: 0.00189 µM
ED50 [9]: 2.73 µM
ED50 [10]: 5.11 µM
ED50 [11]: 0.108 µM
ED50 [12]: 0.00367 µM
ED50 [13]: 0.549 µM
ED50 [14]: 0.0475 µM
ED50 [15]: 0.814 µM
ED50 [16]: 4.66 µM
ED50 [17]: 3.14 µM
ED50 [18]: 43.4 µM
ED50 [19]: 0.0806 µM
ED50 [20]: 224 µM
ED50 [21]: 0.0206 µM
ED50 [22]: 4.54 µM
ED50 [23]: 0.0978 µM
ED50 [24]: 0.1 µM
ED50 [25]: 2.73 µM
ED50 [26]: 13.1 µM
ED50 (Homo sapiens [27]): 11.6 µM
ED50 [28]: 0.537 µM
ED50 [29]: 1.48 µM
ED50 [30]: 1.4 µM
ED50 [31]: 0.00467 µM
ED50 [32]: 1.32 µM
ED50 [33]: 0.0823 µM
ED50 [34]: 2.99 µM
ED50 [35]: 4.91 µM
ED50 (Ataxin-10 (Homo sapiens)): 0.103 µM
ED50 (Homo sapiens [36]): 3.75 µM
ED50 [37]: 0.0297 µM
ED50 [38]: 0.753 µM
ED50 [39]: 0.00265 µM
ED50 [40]: 18.2 µM
ED50 [41]: 5.85 µM
ED50 [42]: 5.79 µM
ED50 [43]: 13.9 µM
ED50 [44]: 115 µM
ED50 [45]: 3.13 µM
ED50 [46]: 111 µM

Cc1ccc(C(=O)Nc2cccc(C(F)(F)F)c2)cc1Nc1nc(-c2cccnc2)nc2nn(C)cc12
ED50 [1]: 0.0538 µM
ED50 [2]: 11.5 µM
ED50 [3]: 0.432 µM
ED50 [4]: 5310 µM
ED50 [5]: 0.00453 µM
ED50 [6]: 0.0534 µM
ED50 [7]: 0.083 µM
ED50 [8]: 0.615 µM
ED50 [9]: 0.0498 µM
ED50 [10]: 0.0063 µM
ED50 [11]: 35.5 µM
ED50 [12]: 0.0574 µM
ED50 [13]: 0.0517 µM
ED50 [14]: 3.69 µM
ED50 [15]: 0.176 µM
ED50 [16]: 0.00365 µM
ED50 [17]: 5.99 µM
ED50 [18]: 0.164 µM
ED50 [19]: 6.54 µM
ED50 [20]: 7.06 µM
ED50 [21]: 0.002 µM
ED50 [22]: 0.0135 µM
ED50 [23]: 1.55 µM
ED50 [24]: 9.44 µM
ED50 [25]: 0.0305 µM
ED50 [26]: 4 µM
ED50 (Homo sapiens [27]): 1.33 µM
ED50 [28]: 0.193 µM
ED50 [29]: 1.74 µM
ED50 [30]: 0.179 µM
ED50 [31]: 0.0077 µM
ED50 [32]: 20.6 µM
ED50 [33]: 0.0115 µM
ED50 [34]: 0.1 µM
ED50 [35]: 4.24 µM
ED50 (Ataxin-10 (Homo sapiens)): 1470 µM
ED50 (Homo sapiens [36]): 0.285 µM
ED50 [37]: 0.0189 µM
ED50 [38]: 1.29 µM
ED50 [39]: 0.00448 µM
ED50 [40]: 3 µM
ED50 [41]: 0.0641 µM
ED50 [42]: 0.32 µM
ED50 [43]: 0.0196 µM
ED50 [44]: 0.0545 µM
ED50 [45]: 13.5 µM
ED50 [46]: 0.0291 µM
